Results: ChEMBL document CHEMBL4390667, “Novel tacrine-tryptophan hybrids: Multi-target directed ligands as potential treatment for Alzheimer's disease” (Eur J Med Chem, 2019)
pIC50: −log10 of the molar value. Values belong to the molecule of their own block, whether it stands above or below them.

How the values were obtained:
CHO-K1 = experiment: cells; conditions: Cricetulus griseus, CHO-K1, 24 h
Description: Cytotoxicity against CHOK1 cells assessed as reduction in cell viability incubated for 24 hrs by MTT assay

Nitric oxide synthase 1 = Nitric oxide synthase 1 (Rattus norvegicus, UniProt P29476)
Description: Inhibition of nNOS in Wistar rat cortical homogenates incubated for 30 mins

Cholinesterase = Cholinesterase (Homo sapiens, UniProt P06276)
Description: Inhibition of human recombinant BChE using butyrylthiocholine iodide as substrate preincubated for 5 mins followed by substrate addition and measured over 2 mins by UV-Vis spectrophotometric analysis based Ellman's method

HepG2 = experiment: cells; conditions: Homo sapiens, HepG2, 24 h
Description: Cytotoxicity against human HepG2 cells assessed as reduction in cell viability incubated for 24 hrs by MTT assay

[1] = pampa, pH 7.4, 100 µM
Description: Effective permeability of the compound in PBS buffer at pH 7.4 at 100 uM after 3 to 6 hrs by PAMPA

Acetylcholinesterase = Acetylcholinesterase (Homo sapiens, UniProt P22303)
Chain of Acetylcholinesterase (P22303 whole entry): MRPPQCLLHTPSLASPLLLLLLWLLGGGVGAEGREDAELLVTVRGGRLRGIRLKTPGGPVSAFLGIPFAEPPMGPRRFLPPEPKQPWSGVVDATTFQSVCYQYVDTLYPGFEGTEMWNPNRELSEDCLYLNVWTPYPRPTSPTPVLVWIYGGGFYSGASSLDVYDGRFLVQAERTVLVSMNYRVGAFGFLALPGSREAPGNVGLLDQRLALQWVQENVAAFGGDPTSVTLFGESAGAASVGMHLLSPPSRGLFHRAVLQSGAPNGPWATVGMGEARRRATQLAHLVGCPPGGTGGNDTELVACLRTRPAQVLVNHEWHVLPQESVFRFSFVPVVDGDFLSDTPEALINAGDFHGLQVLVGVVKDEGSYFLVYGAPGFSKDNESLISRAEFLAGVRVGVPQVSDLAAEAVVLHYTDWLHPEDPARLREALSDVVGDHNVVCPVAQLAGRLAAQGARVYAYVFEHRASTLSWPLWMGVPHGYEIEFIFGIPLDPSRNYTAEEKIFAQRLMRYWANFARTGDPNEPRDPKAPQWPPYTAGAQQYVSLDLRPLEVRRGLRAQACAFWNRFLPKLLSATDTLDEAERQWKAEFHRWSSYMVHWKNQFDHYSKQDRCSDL
Description: Inhibition of human recombinant AChE using acetylthiocholine iodide as substrate preincubated for 5 mins followed by substrate addition and measured over 2 mins by UV-Vis spectrophotometric analysis based Ellman's method

Chain of Nitric oxide synthase 1 (P29476 whole entry, looked up): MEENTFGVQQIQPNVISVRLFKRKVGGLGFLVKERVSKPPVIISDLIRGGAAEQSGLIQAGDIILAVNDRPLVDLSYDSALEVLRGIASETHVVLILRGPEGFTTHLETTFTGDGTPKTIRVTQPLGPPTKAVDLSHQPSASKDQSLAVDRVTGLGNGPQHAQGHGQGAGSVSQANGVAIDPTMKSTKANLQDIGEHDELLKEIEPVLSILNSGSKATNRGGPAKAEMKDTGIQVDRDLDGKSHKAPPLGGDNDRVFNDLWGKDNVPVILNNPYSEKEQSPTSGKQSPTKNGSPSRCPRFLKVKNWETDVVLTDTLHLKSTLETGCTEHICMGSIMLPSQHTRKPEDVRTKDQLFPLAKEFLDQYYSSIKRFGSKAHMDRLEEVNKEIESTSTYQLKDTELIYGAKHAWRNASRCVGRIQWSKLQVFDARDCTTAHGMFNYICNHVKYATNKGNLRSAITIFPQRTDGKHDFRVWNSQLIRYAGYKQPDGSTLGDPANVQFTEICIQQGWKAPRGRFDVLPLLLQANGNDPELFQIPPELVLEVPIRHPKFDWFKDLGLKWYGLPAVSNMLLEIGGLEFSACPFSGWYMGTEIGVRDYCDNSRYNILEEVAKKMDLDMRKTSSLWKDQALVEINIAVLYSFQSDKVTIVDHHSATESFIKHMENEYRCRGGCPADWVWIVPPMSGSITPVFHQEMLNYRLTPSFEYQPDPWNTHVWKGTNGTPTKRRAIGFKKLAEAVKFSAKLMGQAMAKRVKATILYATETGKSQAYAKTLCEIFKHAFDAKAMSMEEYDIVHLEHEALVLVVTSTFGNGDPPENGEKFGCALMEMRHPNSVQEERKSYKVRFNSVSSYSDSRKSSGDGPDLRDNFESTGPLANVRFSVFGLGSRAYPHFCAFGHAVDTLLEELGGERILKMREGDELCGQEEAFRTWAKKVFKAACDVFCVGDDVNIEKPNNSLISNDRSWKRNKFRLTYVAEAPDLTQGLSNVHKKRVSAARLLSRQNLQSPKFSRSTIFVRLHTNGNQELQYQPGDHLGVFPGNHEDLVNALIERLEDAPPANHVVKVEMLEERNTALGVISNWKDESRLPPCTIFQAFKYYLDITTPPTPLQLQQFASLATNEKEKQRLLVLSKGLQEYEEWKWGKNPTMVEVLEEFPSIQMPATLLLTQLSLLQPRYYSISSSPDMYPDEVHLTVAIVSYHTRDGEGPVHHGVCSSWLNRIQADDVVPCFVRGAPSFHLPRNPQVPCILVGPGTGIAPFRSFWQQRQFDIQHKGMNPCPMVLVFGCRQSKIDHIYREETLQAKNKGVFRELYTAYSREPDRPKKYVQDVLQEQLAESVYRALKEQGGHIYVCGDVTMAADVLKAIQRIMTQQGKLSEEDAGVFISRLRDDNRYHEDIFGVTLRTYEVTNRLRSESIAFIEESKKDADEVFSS
Chain of Cholinesterase (P06276 whole entry): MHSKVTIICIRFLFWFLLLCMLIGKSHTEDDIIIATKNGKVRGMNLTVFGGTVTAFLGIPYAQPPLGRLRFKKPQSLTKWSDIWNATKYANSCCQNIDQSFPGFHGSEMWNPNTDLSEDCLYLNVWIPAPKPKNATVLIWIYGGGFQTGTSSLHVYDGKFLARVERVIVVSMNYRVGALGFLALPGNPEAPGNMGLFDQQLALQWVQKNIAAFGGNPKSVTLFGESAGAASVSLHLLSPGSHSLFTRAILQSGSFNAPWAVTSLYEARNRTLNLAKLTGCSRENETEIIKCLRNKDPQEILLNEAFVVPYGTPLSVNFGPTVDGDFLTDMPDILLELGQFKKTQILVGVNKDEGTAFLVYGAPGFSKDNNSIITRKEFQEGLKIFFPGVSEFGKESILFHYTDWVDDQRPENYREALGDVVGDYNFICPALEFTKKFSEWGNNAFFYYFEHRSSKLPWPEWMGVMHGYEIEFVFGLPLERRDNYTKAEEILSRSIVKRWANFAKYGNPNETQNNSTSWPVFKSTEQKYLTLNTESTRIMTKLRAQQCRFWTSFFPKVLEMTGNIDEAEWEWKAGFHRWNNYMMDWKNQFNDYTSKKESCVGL

Structure (SMILES): Cl.Cl.NC(Cc1c[nH]c2ccccc12)C(=O)NCCCCCCNc1c2c(nc3cc(Cl)ccc13)CCCC2 (racemic)
pIC50 (CHO-K1): 4.68 | pIC50 (Nitric oxide synthase 1): 4.48 | pIC50 (Cholinesterase): 7.89 | pIC50 (HepG2): 5.29 | permeability [1]: Permeable | pIC50 (Acetylcholinesterase): 8.13

Structure (SMILES): Cl.Cl.N[C@@H](Cc1c[nH]c2ccccc12)C(=O)NCCCCNc1c2c(nc3ccccc13)CCCC2
pIC50 (CHO-K1): 4.47 | pIC50 (Nitric oxide synthase 1): 4.74 | pIC50 (Cholinesterase): 6.91 | permeability [1]: Permeable | pIC50 (Acetylcholinesterase): 5.89

pIC50 (HepG2): 3.92 | permeability [1]: Permeable
Structure (SMILES): COc1ccc2nc3c(c(N)c2c1)CCCC3
pIC50 (CHO-K1): 4.20

pIC50 (Nitric oxide synthase 1): 5.39
Structure (SMILES): CNC(=N)NCCC[C@H](N)C(=O)OC

pIC50 (HepG2): 4.15 | permeability [1]: Permeable
Structure (SMILES): Nc1c2c(nc3cc(Cl)ccc13)CCCC2
pIC50 (CHO-K1): 4.15

Structure (SMILES): N[C@@H](Cc1c[nH]c2ccccc12)C(=O)NCCCCCNc1c2c(nc3cc(Cl)ccc13)CCCC2
pIC50 (CHO-K1): 4.68 | pIC50 (Nitric oxide synthase 1): 4.57 | pIC50 (Cholinesterase): 7.13 | pIC50 (Acetylcholinesterase): 7.12

Structure (SMILES): Cl.Cl.N[C@@H](Cc1c[nH]c2ccccc12)C(=O)NCCCCCNc1c2c(nc3ccccc13)CCCC2
pIC50 (CHO-K1): 4.08 | pIC50 (Nitric oxide synthase 1): 4.59 | pIC50 (Cholinesterase): 7.64 | permeability [1]: Impermeable | pIC50 (Acetylcholinesterase): 6.49

pIC50 (Nitric oxide synthase 1): 5.54
Structure (SMILES): c1ccc2c(NCCCCCCCNc3c4c(nc5ccccc35)CCCC4)c3c(nc2c1)CCCC3

Structure (SMILES): Cl.Cl.N[C@H](Cc1c[nH]c2ccccc12)C(=O)NCCCCCCNc1c2c(nc3cc(Cl)ccc13)CCCC2
pIC50 (CHO-K1): 4.82 | pIC50 (Nitric oxide synthase 1): 4.59 | pIC50 (Cholinesterase): 6.85 | pIC50 (HepG2): 5.38 | permeability [1]: Permeable | pIC50 (Acetylcholinesterase): 8.16

Structure (SMILES): N[C@@H](Cc1c[nH]c2ccccc12)C(=O)NCCNc1c2c(nc3cc(Cl)ccc13)CCCC2
pIC50 (CHO-K1): 4.59 | pIC50 (Nitric oxide synthase 1): 4.41 | pIC50 (Cholinesterase): 6.47 | pIC50 (Acetylcholinesterase): 6.80

Structure (SMILES): Cl.Cl.N[C@@H](Cc1c[nH]c2ccccc12)C(=O)NCCCCCCCNc1c2c(nc3cc(Cl)ccc13)CCCC2
pIC50 (CHO-K1): 4.62 | pIC50 (Nitric oxide synthase 1): 4.57 | pIC50 (Cholinesterase): 7.28 | pIC50 (HepG2): 5.22 | permeability [1]: Permeable | pIC50 (Acetylcholinesterase): 7.72

Structure (SMILES): Cl.Cl.N[C@@H](Cc1c[nH]c2ccccc12)C(=O)NCCCCCCNc1c2c(nc3ccccc13)CCCC2
pIC50 (CHO-K1): 4.05 | pIC50 (Nitric oxide synthase 1): 4.48 | pIC50 (Cholinesterase): 8.41 | pIC50 (HepG2): 4.59 | permeability [1]: Impermeable | pIC50 (Acetylcholinesterase): 6.92

Structure (SMILES): COc1ccc2nc3c(c(NCCCNC(=O)[C@@H](N)Cc4c[nH]c5ccccc45)c2c1)CCCC3.Cl.Cl
pIC50 (CHO-K1): 4.02 | pIC50 (Nitric oxide synthase 1): 4.52 | pIC50 (Cholinesterase): 5.74 | permeability [1]: Impermeable | pIC50 (Acetylcholinesterase): 5.89

Structure (SMILES): COc1ccc2nc3c(c(NCCCCCNC(=O)[C@@H](N)Cc4c[nH]c5ccccc45)c2c1)CCCC3.Cl.Cl
pIC50 (CHO-K1): 4.34 | pIC50 (Nitric oxide synthase 1): 4.59 | pIC50 (Cholinesterase): 6.72 | permeability [1]: Impermeable | pIC50 (Acetylcholinesterase): 6.21

pIC50 (HepG2): 1.77
Structure (SMILES): N[C@@H](Cc1c[nH]c2ccccc12)C(=O)O [TRYPTOPHAN]
